# Earlier results in patent publication US20190083428A1, “SALT BALANCED VAGINAL PRODUCT AND METHOD” (Good Clean Love, Inc., priority 2014, published 2019).
# Key:
# [1] = hyperosmolal concentrations
# HSV-2 = details: after a single exposure
susceptibility to HSV-2 (HSV-2),Compound,toxicity [1],toxicity to lactobacilli (lactobacilli)
,OCC(O)CO [glycerol],obvious toxicity,
markedly increased susceptibility,CC(O)CO (stereo not shown) [propylene glycol],obvious toxicity,
,nonoxynol-9 [Example N9],,toxic
